Experimental data taken from ChEMBL document CHEMBL1201862, “PubChem BioAssay data set” (2004).
Active and inactive are the calls of the source.

Key:
Vero = assay: viability of Vero cells under compound – cytotoxicity control for flavivirus capping enzyme inhibitors (AID 588742); assay type: functional; conditions: Chlorocebus sabaeus
[1] = molecular target: T1, Polyadenylate-binding protein 1 (Homo sapiens, UniProt P11940); assay: MLLE binding blockers, Cy5 peptide tracer – biochemical, fluorescence polarization, Cy5-PAM2 peptide, secondary, miRNA deadenylation inhibitor project, dose response (AID 602260); assay type: functional; conditions: read-out: IC50_Mean
[2] = molecular target: T1, Polyadenylate-binding protein 1; assay: MLLE domain peptide-binding blockers, IC50 – biochemical, fluorescence polarization, FITC-PAM2 peptide, dose response (AID 602259); assay type: functional; conditions: read-out: IC50_Mean
[3] = NIH-3T3 fibroblast cytotoxicity, dose response, cytotoxicity control, cell-based, fluorescence, Alamar Blue, secondary assay (AID 2327); assay type: functional;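 note: NIH-3T3 mouse fibroblasts cultured with fluconazole at 8 µg/mL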
[4] = fluconazole-exposed Candida albicans growth modulators – fluorescence, retest, confirmation (AID 2467); assay type: functional, cell-based
[5] = molecular target: T2, Serine/threonine-protein phosphatase (Candida dubliniensis (strain CD36 / CBS 7987 / NCPF 3949 / NRRLY-17841) (Yeast), UniProt B9W6M3); assay: blockers of CaCl2-induced CDRE-lacZ signaling – S. cerevisiae, luminescence, secondary, dose response (AID 2388); assay type: functional, cell-based;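 note: yeast reporter cells carrying a calcineurin-responsive lacZ construct stimulated with calcium chloride; luminescent beta-galactosidase reporter signal in whole cells rather than isolated phosphatase activity; potency for inhibition where a drop in reporter signal means calcineurin blockade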
T2 sequence (B9W6M3 whole entry): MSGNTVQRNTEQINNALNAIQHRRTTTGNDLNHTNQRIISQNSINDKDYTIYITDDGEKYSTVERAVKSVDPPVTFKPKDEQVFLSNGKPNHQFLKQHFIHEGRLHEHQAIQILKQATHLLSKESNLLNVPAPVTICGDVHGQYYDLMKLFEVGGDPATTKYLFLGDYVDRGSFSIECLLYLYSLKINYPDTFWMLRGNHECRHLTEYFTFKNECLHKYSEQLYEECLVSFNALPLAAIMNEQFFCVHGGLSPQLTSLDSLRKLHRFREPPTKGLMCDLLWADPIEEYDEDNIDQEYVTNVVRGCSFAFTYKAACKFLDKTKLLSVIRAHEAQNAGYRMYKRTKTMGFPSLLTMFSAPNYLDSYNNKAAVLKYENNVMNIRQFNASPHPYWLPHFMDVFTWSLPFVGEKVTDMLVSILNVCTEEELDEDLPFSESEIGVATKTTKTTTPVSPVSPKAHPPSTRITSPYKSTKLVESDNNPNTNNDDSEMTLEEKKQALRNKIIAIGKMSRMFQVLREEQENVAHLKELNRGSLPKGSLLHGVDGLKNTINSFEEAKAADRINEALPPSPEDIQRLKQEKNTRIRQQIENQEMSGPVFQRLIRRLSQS

[6] = molecular target: ATP-dependent molecular chaperone HSP82 (Candida albicans (strain WO-1) (Yeast), UniProt C4YTQ8); assay: steroid-induced GRE reporter decrease in yeast – S. cerevisiae, luminescence, Hsp90 inhibitor project, dose response (AID 2400); assay type: functional, cell-based;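 note: beta-galactosidase luminescence from glucocorticoid response element reporter as proxy for Hsp90 function; inhibitor potency where signal loss means Hsp90 inhibition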
Protein Wnt-3a = Protein Wnt-3a (Mus musculus, UniProt P27467); assay: antagonism of Wnt3a pathway luciferase reporter – Wnt-LIGHT cells, luminescence, selectivity assay for Gli-SUFU antagonist project, dose response (AID 651570); assay type: functional; conditions: read-out: IC50_Mean;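 note: Wnt-LIGHT reporter cells stimulated with conditioned medium from Wnt3a-producing cells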
[7] = molecular target: Dual specificity tyrosine-phosphorylation-regulated kinase 1A (Rattus norvegicus, UniProt Q63470); assay type: biochemical, Homo sapiens
[8] = molecular target: T3, Rac GTPase-activating protein 1 (Homo sapiens, UniProt Q9H0H5); assay: blockers of MgcRacGAP-driven Rac1 GTP hydrolysis – biochemical, ADP Hunter fluorescence, primary and confirmatory, confirmation (AID 624330); assay type: functional
T3 sequence (Q9H0H5 whole entry): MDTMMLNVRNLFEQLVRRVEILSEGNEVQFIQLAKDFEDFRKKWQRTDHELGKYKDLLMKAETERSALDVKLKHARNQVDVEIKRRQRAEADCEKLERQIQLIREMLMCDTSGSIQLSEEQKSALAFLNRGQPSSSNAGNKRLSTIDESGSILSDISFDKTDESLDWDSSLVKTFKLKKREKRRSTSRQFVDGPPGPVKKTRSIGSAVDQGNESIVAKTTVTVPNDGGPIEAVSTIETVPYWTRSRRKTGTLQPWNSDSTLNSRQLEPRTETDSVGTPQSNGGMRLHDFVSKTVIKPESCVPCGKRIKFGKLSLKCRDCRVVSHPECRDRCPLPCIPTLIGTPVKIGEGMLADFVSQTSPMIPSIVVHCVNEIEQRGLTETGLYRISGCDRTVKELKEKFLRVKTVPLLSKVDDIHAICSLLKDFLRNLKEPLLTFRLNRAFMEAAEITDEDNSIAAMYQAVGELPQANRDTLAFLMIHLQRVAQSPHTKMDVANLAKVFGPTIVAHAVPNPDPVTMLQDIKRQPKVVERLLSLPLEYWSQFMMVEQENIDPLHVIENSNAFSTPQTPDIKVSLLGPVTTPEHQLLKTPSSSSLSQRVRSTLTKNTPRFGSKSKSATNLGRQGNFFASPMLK

[9] = Trypanosoma cruzi growth suppression in host cells – NIH3T3 host cells, beta-gal luminescence, confirmation (AID 2044); assay type: functional, cell-based;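 note: intracellular parasites grown in NIH/3T3 mouse fibroblasts as host cells; luminescent beta-galactosidase reporter signal from transgenic T. cruzi replicating inside host cells; inhibitors lower the luminescence signal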
[10] = NIH3T3 cell viability loss – ATP luminescence, mouse fibroblasts, counter-screen, dose response (AID 2010); assay type: functional, cell-based;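 note: cells exposed to compound for about 90 hours before reading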
[11] = Luminescence Cell-Based Dose Retest to Confirm Inhibitors of Cancer Stem Cells. [Related pubchem assays (depositor defined):AID2717, AID2721]; assay type: functional; conditions: Homo sapiens
[12] = molecular target: T4, Microphthalmia-associated transcription factor (Homo sapiens, UniProt O75030); assay: reducers of TRPM1 reporter luminescence, concentration series – cell-based, SK-MEL-5, cherry-picked, set 3, MITF inhibitor project, dose response (AID 493073); assay type: functional;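 note: SK-MEL-5 melanoma cells with luciferase driven by the MITF target TRPM1 promoter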
T4 sequence (O75030 whole entry): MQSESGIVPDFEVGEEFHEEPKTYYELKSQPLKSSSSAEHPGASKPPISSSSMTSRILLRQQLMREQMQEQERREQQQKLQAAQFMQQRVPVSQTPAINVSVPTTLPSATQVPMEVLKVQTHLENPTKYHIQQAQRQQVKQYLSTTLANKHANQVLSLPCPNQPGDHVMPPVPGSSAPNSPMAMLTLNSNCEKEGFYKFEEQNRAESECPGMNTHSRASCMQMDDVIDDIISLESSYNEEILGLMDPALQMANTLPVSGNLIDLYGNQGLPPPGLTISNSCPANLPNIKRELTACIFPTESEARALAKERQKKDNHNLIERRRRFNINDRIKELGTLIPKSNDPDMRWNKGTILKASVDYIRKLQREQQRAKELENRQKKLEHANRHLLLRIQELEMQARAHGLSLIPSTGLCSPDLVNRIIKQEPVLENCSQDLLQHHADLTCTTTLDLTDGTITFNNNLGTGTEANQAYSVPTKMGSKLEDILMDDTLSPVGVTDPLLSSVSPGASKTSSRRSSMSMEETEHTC

A-375 = assay: MITF: Counter assay: A375 proliferation Measured in Cell-Based System Using Plate Reader - 2084-03_Inhibitor_Dose_DryPowder_Activity. [Related pubchem assays (depositor defined):AID488944]; assay type: functional; conditions: Homo sapiens
INS1 = assay: INS-1E survival protection against cytokine death – cell-based, luminescence, retest, dose response (AID 449756); assay type: functional; conditions: Rattus norvegicus;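 note: cell death triggered by IL-1 beta plus TNF-alpha plus IFN-gamma mixture; protective hits raise ATP signal compared with cytokine alone wells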
[13] = reduction of Shn3 3'UTR-driven luciferase in osteoblasts – cell-based, Clone20 osteoblasts, firefly luciferase, cherry-picked, dose response (AID 624132); assay type: functional;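 note: firefly luciferase luminescence from reporter carrying the Shn3 3'UTR in osteoblasts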
[14] = loss of viability in HepG2 cells – cell-based, CellTiter-Glo, cherry-picked, cytotoxicity control for Shn3 inhibitor project, dose response (AID 624134); assay type: functional
[15] = non-specific 3'UTR reporter inhibition in Clone20-Shn3RL – cell-based, Renilla luciferase, cherry-picked, counter-screen for Shn3 inhibitor project, dose response (AID 624133); assay type: functional
Hexokinase-1 = molecular target: T5, Hexokinase-1 (Homo sapiens, UniProt P19367); assay: SAR analysis of small molecule inhibitors of hexokinase domain containing I (HKDC1) in the hexokinase 1 selectivity assay. [Related pubchem assays (depositor defined):AID493160, AID493190]; assay type: functional
T5 sequence (P19367 whole entry): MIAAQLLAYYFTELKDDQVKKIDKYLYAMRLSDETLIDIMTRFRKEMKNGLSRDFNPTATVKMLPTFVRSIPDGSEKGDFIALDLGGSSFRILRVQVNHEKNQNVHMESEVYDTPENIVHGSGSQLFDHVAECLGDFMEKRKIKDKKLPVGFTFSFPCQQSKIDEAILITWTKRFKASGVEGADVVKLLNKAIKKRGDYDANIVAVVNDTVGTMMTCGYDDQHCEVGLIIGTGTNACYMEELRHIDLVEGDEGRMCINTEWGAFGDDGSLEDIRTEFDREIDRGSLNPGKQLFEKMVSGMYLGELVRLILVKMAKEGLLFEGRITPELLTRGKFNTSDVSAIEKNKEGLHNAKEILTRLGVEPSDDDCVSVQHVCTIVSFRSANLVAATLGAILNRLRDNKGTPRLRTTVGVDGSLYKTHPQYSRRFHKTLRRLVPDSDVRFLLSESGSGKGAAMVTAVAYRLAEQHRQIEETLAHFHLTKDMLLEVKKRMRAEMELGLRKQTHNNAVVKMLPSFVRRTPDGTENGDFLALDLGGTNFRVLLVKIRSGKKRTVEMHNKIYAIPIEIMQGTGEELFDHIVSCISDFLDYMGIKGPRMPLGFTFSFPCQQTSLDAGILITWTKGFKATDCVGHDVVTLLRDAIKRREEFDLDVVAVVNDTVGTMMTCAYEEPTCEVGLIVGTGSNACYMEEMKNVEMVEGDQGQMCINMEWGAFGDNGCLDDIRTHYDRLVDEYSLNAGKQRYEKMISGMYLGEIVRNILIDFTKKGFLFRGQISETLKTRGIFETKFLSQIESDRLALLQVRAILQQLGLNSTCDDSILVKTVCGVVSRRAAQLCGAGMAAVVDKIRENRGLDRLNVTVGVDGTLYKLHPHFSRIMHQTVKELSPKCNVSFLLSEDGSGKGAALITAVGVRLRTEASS

Hexokinase HKDC1 = molecular target: T6, Hexokinase HKDC1 (Homo sapiens, UniProt Q2TB90); assay: SAR analysis of small molecule inhibitors of hexokinase domain containing I (HKDC1). [Related pubchem assays (depositor defined):AID493160, AID493190]; assay type: functional
T6 sequence (Q2TB90 whole entry): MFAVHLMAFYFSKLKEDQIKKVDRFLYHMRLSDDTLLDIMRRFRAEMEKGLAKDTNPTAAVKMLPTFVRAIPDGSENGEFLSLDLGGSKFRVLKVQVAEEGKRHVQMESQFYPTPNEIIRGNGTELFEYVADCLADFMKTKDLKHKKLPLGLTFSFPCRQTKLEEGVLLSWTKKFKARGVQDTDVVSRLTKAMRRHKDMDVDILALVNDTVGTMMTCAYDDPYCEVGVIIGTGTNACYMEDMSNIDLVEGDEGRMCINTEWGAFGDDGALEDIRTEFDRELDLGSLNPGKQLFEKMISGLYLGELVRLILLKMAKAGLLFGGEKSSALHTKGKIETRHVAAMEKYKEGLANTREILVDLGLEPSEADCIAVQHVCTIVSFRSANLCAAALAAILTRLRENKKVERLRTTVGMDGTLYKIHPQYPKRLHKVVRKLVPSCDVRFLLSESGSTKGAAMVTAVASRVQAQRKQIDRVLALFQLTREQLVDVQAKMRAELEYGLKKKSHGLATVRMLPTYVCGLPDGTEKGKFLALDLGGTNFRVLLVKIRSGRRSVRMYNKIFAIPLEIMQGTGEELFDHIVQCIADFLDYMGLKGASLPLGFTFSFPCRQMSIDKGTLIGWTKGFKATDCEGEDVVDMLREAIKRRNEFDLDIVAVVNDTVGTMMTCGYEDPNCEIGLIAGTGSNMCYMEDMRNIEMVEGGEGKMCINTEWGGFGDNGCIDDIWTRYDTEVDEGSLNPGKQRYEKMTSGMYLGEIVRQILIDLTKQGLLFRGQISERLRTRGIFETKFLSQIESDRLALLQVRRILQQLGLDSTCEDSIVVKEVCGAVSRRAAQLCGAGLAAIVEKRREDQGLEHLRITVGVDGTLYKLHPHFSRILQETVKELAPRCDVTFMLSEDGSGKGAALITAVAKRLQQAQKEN

Large T antigen = Large T antigen (Simian virus 40, UniProt P03070); assay type: functional, Betapolyomavirus macacae;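 note: Confirmatory-stage PubChem screen for compounds that inhibit SV40 T antigen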
Chain of Large T antigen (P03070 whole entry): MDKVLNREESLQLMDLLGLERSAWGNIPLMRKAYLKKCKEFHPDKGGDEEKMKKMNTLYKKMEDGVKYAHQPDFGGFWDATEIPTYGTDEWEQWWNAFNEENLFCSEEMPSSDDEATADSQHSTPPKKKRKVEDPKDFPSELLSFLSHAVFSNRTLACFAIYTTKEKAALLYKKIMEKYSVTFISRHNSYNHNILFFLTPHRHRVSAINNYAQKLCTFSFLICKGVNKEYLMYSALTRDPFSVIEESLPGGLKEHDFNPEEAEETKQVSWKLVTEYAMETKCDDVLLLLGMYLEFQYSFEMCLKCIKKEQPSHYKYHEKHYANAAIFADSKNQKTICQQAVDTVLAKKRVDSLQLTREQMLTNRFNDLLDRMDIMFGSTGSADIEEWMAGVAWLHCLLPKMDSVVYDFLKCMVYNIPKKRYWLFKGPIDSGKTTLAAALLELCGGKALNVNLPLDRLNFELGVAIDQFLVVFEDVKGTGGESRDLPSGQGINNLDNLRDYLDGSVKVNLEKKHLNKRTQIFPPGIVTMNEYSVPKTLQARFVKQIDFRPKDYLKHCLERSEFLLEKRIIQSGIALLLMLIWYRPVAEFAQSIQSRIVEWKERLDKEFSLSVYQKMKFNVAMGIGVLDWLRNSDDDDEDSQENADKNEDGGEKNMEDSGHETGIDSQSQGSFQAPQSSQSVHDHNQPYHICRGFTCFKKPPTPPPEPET

T1 sequence (P11940 whole entry, the tested form may be a part): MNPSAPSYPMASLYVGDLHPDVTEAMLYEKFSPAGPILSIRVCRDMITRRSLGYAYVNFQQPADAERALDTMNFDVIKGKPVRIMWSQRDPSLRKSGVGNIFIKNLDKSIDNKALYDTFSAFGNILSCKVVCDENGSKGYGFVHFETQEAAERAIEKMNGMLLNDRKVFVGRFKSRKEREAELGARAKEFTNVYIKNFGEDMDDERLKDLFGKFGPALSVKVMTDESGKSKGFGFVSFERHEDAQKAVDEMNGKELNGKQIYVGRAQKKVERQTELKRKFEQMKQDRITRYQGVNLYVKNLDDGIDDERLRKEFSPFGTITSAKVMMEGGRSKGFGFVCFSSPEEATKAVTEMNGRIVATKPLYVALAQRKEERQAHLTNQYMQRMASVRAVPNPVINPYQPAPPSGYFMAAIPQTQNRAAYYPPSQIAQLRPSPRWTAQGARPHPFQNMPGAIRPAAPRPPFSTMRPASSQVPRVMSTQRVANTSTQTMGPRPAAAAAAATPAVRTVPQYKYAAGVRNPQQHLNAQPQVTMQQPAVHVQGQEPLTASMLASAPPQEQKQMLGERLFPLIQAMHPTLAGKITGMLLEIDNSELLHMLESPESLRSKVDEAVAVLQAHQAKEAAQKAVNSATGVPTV
Chain of ATP-dependent molecular chaperone HSP82 (C4YTQ8 whole entry): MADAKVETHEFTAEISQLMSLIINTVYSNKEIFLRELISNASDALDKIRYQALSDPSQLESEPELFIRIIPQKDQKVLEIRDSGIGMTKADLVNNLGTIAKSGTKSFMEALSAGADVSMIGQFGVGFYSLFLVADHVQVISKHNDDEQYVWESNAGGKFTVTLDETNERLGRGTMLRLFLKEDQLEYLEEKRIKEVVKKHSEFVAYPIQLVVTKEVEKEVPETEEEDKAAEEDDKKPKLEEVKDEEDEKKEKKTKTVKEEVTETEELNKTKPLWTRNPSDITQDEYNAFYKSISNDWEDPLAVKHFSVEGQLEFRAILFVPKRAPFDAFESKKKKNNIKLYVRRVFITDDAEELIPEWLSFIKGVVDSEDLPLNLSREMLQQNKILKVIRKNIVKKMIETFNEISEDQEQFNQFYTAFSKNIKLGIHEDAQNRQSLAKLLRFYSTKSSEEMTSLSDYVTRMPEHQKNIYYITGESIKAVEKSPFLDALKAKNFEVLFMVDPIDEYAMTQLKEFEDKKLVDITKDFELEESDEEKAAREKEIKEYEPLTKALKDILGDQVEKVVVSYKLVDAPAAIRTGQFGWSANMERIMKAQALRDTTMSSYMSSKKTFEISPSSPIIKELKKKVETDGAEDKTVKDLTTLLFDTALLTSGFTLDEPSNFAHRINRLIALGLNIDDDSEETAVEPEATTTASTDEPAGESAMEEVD
Chain of Protein Wnt-3a (P27467 whole entry): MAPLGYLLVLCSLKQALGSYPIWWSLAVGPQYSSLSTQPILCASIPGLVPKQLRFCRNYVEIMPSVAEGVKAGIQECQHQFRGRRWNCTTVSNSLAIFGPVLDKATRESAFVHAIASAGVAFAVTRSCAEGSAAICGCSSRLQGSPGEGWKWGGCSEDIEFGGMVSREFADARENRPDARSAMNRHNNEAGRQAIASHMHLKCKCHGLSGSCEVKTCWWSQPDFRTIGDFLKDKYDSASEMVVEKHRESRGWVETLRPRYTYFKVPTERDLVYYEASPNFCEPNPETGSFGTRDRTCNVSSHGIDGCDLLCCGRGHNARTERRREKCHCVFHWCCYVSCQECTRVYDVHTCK

COC/C=C/C1=CC2=CC(=O)C(C)(OC(=O)c3cnc4ccccc4n3)C(=O)C2=CN1Cc1ccc(OC)cc1 (configuration not stated)
CC50 (Vero): 39.2 µM (active)

O=C(Nc1cccs1)Nc1c(F)c(F)c(F)c(F)c1F
IC50 [1]: > 66 µM (inactive)
IC50 [2]: > 66 µM (inactive)

CCc1ccccc1N=C(S)N=Nc1c(O)n(C)c2ccc(S(=O)(=O)N3CCOCC3)cc12
EC50 [3]: > 150 µM (inconclusive)
EC50 [4]: > 38 µM (not active)
EC50 [5]: > 180 µM (inactive)
EC50 [6]: 40.9 µM (active)
IC50 (Protein Wnt-3a): 13.3 µM (active)

Nc1cc2c([N+](=O)[O-])cccc2o1
AC50 [7]: 16.6 µM (active)
IC50 [8]: 128 µM (active)

O=S(=O)(c1ccc(Cl)cc1)N1CCN(Cc2ccc(O)c3ncccc23)CC1
EC50 [3]: 16.6 µM (active)
EC50 [4]: 2.53 µM (active)
EC50 [9]: 1.37 µM (active)
EC50 [10]: > 30 µM (not active)
AC50 [11]: 5.13 µM (active)
AC50 [12]: 4.37 µM (active)
AC50 (A-375): 40.6 µM (active)
AC50 (INS1): 2.42 µM (active)
AC50 [13]: 3.01 µM (active)
AC50 [14]: 43.9 µM (active)
AC50 [15]: 16.4 µM (active)

O=C(Nc1cccc(C(=O)Nc2cccc(C(F)(F)F)c2)c1)c1ccncc1
IC50 (Hexokinase-1): > 80 µM (inactive)
IC50 (Hexokinase HKDC1): > 80 µM (inactive)

COc1ccccc1/C=C/c1nc2ccccc2c(=O)n1Cc1ccccc1
IC50 (Hexokinase-1): > 80 µM (inactive)
IC50 (Hexokinase HKDC1): > 80 µM (inactive)

O=C(Nc1nnc(SCc2ccc(Cl)cc2)s1)c1ccc2ncsc2c1
IC50 (Hexokinase-1): > 80 µM (inactive)
IC50 (Hexokinase HKDC1): > 80 µM (inactive)

Cc1ccc(NC(=O)CSC(N)=O)cc1Cl
IC50 [1]: > 66 µM (inactive)
IC50 [2]: > 66 µM (inactive)

O=C(O)/C=C/c1ccc(O)cc1 [COUMARIC ACID]
IC50 (Large T antigen): 18.9 µM (active)
AC50 [7]: 10.9 µM (active)

O=c1cc(-c2ccc(O)c(O)c2)oc2cc(O[C@@H]3O[C@H](CO)[C@@H](O)[C@H](O)[C@H]3O)cc(O)c12 [GALUTEOLIN]
AC50 [7]: 12.7 µM (active)
